Where two headings read alike, the source gives them in different places.
Legend:
[1] = target: T1, Aggrecanase-1 (Homo sapiens, UniProt O75173); experiment: Aggrecanase-1 FRET assay; type: biochemical; conditions: rAgg1, WAAG-3R substrate; read-out: AGG-1 IC50
T1 sequence (O75173 213-837): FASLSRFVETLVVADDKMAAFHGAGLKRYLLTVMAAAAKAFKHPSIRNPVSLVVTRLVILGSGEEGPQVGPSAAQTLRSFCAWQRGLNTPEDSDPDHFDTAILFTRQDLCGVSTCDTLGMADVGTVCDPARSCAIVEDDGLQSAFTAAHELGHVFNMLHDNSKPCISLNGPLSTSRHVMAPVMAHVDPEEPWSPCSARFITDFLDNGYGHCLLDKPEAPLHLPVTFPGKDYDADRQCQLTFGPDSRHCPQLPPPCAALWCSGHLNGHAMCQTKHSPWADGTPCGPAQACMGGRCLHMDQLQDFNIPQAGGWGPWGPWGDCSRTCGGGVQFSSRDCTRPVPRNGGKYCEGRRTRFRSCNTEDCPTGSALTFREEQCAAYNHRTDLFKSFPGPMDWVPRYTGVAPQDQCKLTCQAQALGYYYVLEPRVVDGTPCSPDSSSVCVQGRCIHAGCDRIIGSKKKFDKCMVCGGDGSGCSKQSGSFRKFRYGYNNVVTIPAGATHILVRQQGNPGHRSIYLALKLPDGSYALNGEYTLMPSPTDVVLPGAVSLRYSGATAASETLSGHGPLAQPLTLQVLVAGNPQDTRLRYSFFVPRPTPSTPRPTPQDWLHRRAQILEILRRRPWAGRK
Description: h. Aggrecanase-1 FRET Assay:
The following protocol was used: • Fluorimeter was started and temperature set to 30° C., about 30 min before setting up the assay. The following reagents are used: • Buffer: 50 mM HEPES, pH 7.5, 100 mM NaCl, 5 mM CaCl2, 0.1% CHAPS, 5% glycerol. • rAgg1: 5 μg/ml (final concentration in the assay): • Substrate: WAAG-3R (MWT=1645.8, Anaspec, stored at 4° C.). Make a stock at 2 mg/ml in 100% DMSO. Measure the absorbance at 354 nm (ε=18172 M^−1 cm^−1) to determine the exact concentration. Dilute to 62.5 μM in buffer. Store unused 100% DMSO stock at −80° C. Final concentration of substrate in the assay is 25 μM. […] Make up inhibitors at 10× starting concentration in 100% DMSO. Perform serial dilutions (in duplicate) across the nunc plate in 100% DMSO; • Dilution plates: Nunc, polypropylene low binding (Nalgene) • Assay plate: Fluoronunc (Nalgene) • Fluorimeter: GeminiXS (Molecular Devices).; • The assay is performed as follows: The plates are set up so that the final column (12) is used for controls. Total reaction volume is 100 μl. Each compound is assayed in duplicate, so 4 compounds are screened per plate. • 1) Add buffer to the entire 96-well plate (30 ρl/well). • 2) Dilute rAgg1 to 25 μg/ml buffer just prior to addition on the plate. Add 20 μl/well to all wells. Mix 6 times. • 3) Add 10 μl/well of 10× inhibitors from the working plate, except column 12. Mix 6 times. […] Mix 6 times.
The reaction is monitored for 30-40 min at 30° C. λex: 340 nm and λ em: 420 nm). The fluorescence is linear during this time and the slope of the line (Vmax/sec) represents the initial reaction rate, ν. The maximal rate of cleavage of substrate is determined in the absence of inhibitor. The percent inhibition of activity in the presence of inhibitor is calculated as follows:
[formula] The IC50 was obtained by fitting the initial rate, ν, or % inhibition at each concentration of inhibitor to the following equation in Excel. y=(a−d)/(1+C/IC50)^n)+d This model describes a sigmoidal curve with an adjustable baseline, […]. y is the % inhibition or initial rate of reaction, C is the concentration of inhibitor under test. a is the limiting response as C approaches zero. […] The sign of n is positive when the response increases with increasing dose and is negative when the response decreases with increasing dose (inhibition).

[2] = target: T2, MMP-2 (Homo sapiens, UniProt P08253); experiment: In-vitro fluorescence assay of MMP-2 activity; type: biochemical; conditions: recombinant human MMP-2; read-out: MMP-2 IC50
T2 construct: purchased Oncogene Research Products (Calbiochem) PF023
T2 sequence (P08253 110-660): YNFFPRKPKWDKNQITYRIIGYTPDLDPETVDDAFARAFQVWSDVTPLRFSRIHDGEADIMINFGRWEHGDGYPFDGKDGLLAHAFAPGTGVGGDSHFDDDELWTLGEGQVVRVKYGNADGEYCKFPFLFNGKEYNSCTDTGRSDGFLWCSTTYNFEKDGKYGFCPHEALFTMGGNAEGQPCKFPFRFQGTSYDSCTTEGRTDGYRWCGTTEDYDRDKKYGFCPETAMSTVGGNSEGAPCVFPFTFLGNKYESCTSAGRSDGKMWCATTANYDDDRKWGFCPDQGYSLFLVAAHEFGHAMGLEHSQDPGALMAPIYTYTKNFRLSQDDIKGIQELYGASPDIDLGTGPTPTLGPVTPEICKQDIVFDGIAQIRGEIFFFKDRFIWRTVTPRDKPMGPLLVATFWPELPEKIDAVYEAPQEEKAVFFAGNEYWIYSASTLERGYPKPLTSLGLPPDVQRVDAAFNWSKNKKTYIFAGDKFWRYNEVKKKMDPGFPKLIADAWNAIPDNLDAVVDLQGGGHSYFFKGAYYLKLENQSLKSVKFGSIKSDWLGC

[3] = target: T3, MMP-12 (Homo sapiens, UniProt P39900); experiment: In vitro fluorescence assay of MMP-12 activity; type: biochemical; conditions: recombinant human MMP-12
T3 construct: made in house
T3 sequence (P39900 106-280 limits assumed): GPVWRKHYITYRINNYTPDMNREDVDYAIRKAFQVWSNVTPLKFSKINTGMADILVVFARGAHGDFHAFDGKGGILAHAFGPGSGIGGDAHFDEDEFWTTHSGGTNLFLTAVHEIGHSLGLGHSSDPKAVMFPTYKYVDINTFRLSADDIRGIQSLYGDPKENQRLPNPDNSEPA

[4] = target: T4, MMP-13 (Homo sapiens, UniProt P45452); experiment: In-vitro fluorescence assay of MMP-13 activity; type: biochemical
T4 construct: made in house

[5] = target: T5, MMP-14 (Homo sapiens, UniProt P50281); experiment: In-vitro fluorescence assay of MMP-14 activity; type: biochemical
T5 construct: 20 kDa; purchased Chemicon International, Inc. CC 1041

[6] = target: T6, MMP-1 (Homo sapiens, UniProt P03956)
T6 sequence (P03956 100-269 limits assumed): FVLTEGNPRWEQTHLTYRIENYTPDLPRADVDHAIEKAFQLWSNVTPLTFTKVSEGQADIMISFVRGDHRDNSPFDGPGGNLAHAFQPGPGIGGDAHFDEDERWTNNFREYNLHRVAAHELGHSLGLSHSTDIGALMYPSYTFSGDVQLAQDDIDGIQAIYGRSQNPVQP

[7] = recombinant human catalytic domain of MMP-13, read-out: MMP-13 IC50
[8] = recombinant human catalytic domain of MMP-14

IC50 [2] [nM] | IC50 [3] [nM] | IC50 [4, 7] [nM] | IC50 [6] [nM] | IC50 [5, 8] [nM] | SMILES | IC50 [1] [nM] | IC50 [5] [nM] | IC50 ([4]; MMP-13 IC50, recombinant human catalytic domain of MMP-13) [nM] | IC50 ([6]; read-out: MMP-1 IC50, recombinant human catalytic domain of MMP-1) [nM]
9300 | 97 | 12 | 90000 | 11000 | CC(C)[C@H](NS(=O)(=O)c1ccc(-c2ccc(NC(=O)c3cc4c(-c5ccccc5)nn(C)c4s3)cc2)cc1)C(=O)O [Example 167, (S)-3-Methyl-2-{4′-[(1-methyl-3-phenyl-1H-thieno[2,3-c]pyrazole-5-carbonyl)-amino]-biphenyl-4-sulfonylamino}-butyric acid] |  |  |  | 
3590 | 121 | 7.4 |  |  | CCOc1cccc2oc(C(=O)Nc3ccc(-c4ccc(S(=O)(=O)N[C@H](C(=O)O)C(C)C)cc4)cc3)c(C)c12 [Example 106, (S)-2-{4′-[(4-ethoxy-3-methyl-benzofuran-2-carbonyl)-amino]-biphenyl-4-sulfonylamino}-3-methyl-butyric acid] |  |  |  | 
4350 | 51 | 43 |  |  | Cc1nn(C)c2sc(C(=O)Nc3ccc(-c4ccc(S(=O)(=O)N[C@H](C(=O)O)C(C)C)cc4)cc3)cc12 [Example 80, (S)-2-{4′-[(1,3-Dimethyl-1H-thieno[2,3-c]pyrazole-5-carbonyl)-amino]-biphenyl-4-sulfonylamino}-3-methyl-butyric acid] |  |  |  | 
1340 | 84 | 4 | 22000 | 7310 | Cc1c(C(=O)Nc2ccc(-c3ccc(S(=O)(=O)N[C@H](C(=O)O)C(C)C)cc3)cc2)oc2cccc(-c3cccnc3)c12 [Example 111, (S)-3-methyl-2-{4′-[(3-methyl-4-pyridin-3-yl-benzofuran-2-carbonyl)-amino]-biphenyl-4-sulfonylamino}-butyric acid] |  |  |  | 
 | 11 | 0.4 | 70000 | 35000 | CC(C)[C@H](NS(=O)(=O)c1ccc(-c2ccc(NC(=O)c3nc4ccccc4s3)cc2)cc1)C(=O)O [Example 151, L-2-{4′-[(Benzothiazole-2-carbonyl)-amino]-biphenyl-4-sulfonylamino}-3-methyl-butyric acid] |  |  |  | 

The remaining lines, values behind:

SMILES | IC50 [2] [nM] | IC50 [3] [nM] | IC50 [4, 7] [nM] | IC50 [6] [nM] | IC50 [5, 8] [nM] | IC50 [1] [nM] | IC50 [5] [nM] | IC50 ([4]; MMP-13 IC50, recombinant human catalytic domain of MMP-13) [nM] | IC50 ([6]; read-out: MMP-1 IC50, recombinant human catalytic domain of MMP-1) [nM]
CC(C)[C@@H](NS(=O)(=O)c1ccc(-c2ccc(OC(=O)c3ccco3)cc2)cc1)C(=O)O [Example 144, N-{[4′-(2-Furoyloxy)-1,1′-biphenyl-4-yl]sulfonyl}-D-valine] |  |  |  |  |  | 11600 |  |  | 
Cc1c(C(=O)Nc2ccc(-c3ccc(S(=O)(=O)N[C@H](C(=O)O)C(C)C)cc3)cc2)oc2cccc(C#N)c12 [Example 20, L-2-{4′-[(4-Cyano-3-methyl-benzofuran-2-carbonyl)-amino]-biphenyl-4-sulfonylamino}-3-methyl-butyric acid] | 581 | 33 | 3.7 | 24000 |  |  | 5450 |  | 
Cc1c(C(=O)Nc2ccc(-c3ccc(S(=O)(=O)N[C@H](C(=O)O)C(C)C)cc3)cc2)oc2cccc(Oc3ccccc3)c12 [Example 155, L-3-Methyl-2-{4′-[(3-methyl-4-phenoxy-benzofuran-2-carbonyl)-amino]-biphenyl-4-sulfonylamino}-butyric acid] | 5000 | 508 |  | 25000 | 8000 |  |  | 19 | 
COCC#Cc1cccc2oc(C(=O)Nc3ccc(-c4ccc(S(=O)(=O)N[C@H](C(=O)O)C(C)C)cc4)cc3)c(C)c12 [Example 22, L-2-(4′-{[4-(3-Methoxy-prop-1-ynyl)-3-methyl-benzofuran-2-carbonyl]-amino}-biphenyl-4-sulfonylamino)-3-methyl-butyric acid] | 1940 | 137 | 12 |  |  |  |  |  | 
Cc1c(C(=O)Nc2ccc(-c3ccc(S(=O)(=O)N[C@H](C(=O)O)C(C)C)cc3)cc2)oc2cccc(C(N)=O)c12 [Example 46, L-2-{4′-[(4-Carbamoyl-3-methyl-benzofuran-2-carbonyl)-amino]-biphenyl-4-sulfonylamino}-3-methyl-butyric acid] | 1000 | 187 | 14 | 20200 | 24800 |  |  |  | 
CC(=O)Nc1cccc2oc(C(=O)Nc3ccc(-c4ccc(S(=O)(=O)N[C@H](C(=O)O)C(C)C)cc4)cc3)c(C)c12 [Example 48, L-2-{4′-[(4-Acetylamino-3-methyl-benzofuran-2-carbonyl)-amino]-biphenyl-4-sulfonylamino}-3-methyl-butyric acid] | 3810 | 226 | 25 |  |  |  |  |  | 
Cc1c(C(=O)Nc2ccc(-c3ccc(S(=O)(=O)N[C@H](C(=O)O)C(C)C)cc3)cc2)oc2cccc(NC(=O)C3CC3)c12 [Example 47, L-2-(4′-{[4-(Cyclopropanecarbonyl-amino)-3-methyl-benzofuran-2-carbonyl]-amino}-biphenyl-4-sulfonylamino)-3-methyl-butyric acid] | 4290 | 438 | 32 |  |  |  |  |  | 
COc1c(Cl)ccc2oc(C(=O)Nc3ccc(-c4ccc(S(=O)(=O)N[C@H](C(=O)O)C(C)C)cc4)cc3)c(C)c12 [Example 116, (S)-2-{4′-[(5-Chloro-4-methoxy-3-methyl-benzofuran-2-carbonyl)-amino]-biphenyl-4-sulfonylamino}-3-methyl-butyric acid] | 1490 | 50 | 1.9 |  | 12400 |  |  |  | 34100
CC#Cc1cccc2oc(C(=O)Nc3ccc(-c4ccc(S(=O)(=O)N[C@H](C(=O)O)C(C)C)cc4)cc3)c(C)c12 [Example 21, L-3-Methyl-2-{4′-[(3-methyl-4-prop-1-ynyl-benzofuran-2-carbonyl)-amino]-biphenyl-4-sulfonylamino}-butyric acid] | 15000 | 175 | 9.5 |  |  |  |  |  | 

Source: patent US7420001B2 (Wyeth, priority 2003, dated 2008)
